Test: xn = mol fraction of the nth substance listed
Conditions: Liquid, Vibrating tube method

CCCC [butane] + CCC
Conditions | mass density [kg/m3]
300 K, 4513.8 kPa, x2 = 0.75 | 523.55
300 K, 4514.7 kPa, x2 = 0.5 | 543.88
300 K, 4953.2 kPa, x2 = 0.5 | 544.76
300 K, 5016.7 kPa, x2 = 0.75 | 524.69
300 K, 5031 kPa, x2 = 0.25 | 562.9
300 K, 5451.1 kPa, x2 = 0.25 | 563.65
300 K, 5474.7 kPa, x2 = 0.75 | 525.74
300 K, 5508.8 kPa, x2 = 0.5 | 545.86
300 K, 5929.8 kPa, x2 = 0.25 | 564.5
300 K, 5950 kPa, x2 = 0.75 | 526.78
300 K, 5953 kPa, x2 = 0.5 | 546.73
300 K, 6466.1 kPa, x2 = 0.5 | 547.72
300 K, 6473.6 kPa, x2 = 0.75 | 527.92
300 K, 6488.8 kPa, x2 = 0.25 | 565.48
300 K, 6959.9 kPa, x2 = 0.5 | 548.68
300 K, 7015.2 kPa, x2 = 0.75 | 529.08
300 K, 7074.7 kPa, x2 = 0.25 | 566.49
320 K, 997.4 kPa, x2 = 0.25 | 529.12
320 K, 1482.2 kPa, x2 = 0.25 | 530.41
320 K, 1496.3 kPa, x2 = 0.5 | 509.2
320 K, 1509.8 kPa, x2 = 0.75 | 484.66
320 K, 1996.7 kPa, x2 = 0.25 | 531.76
320 K, 2010.3 kPa, x2 = 0.5 | 510.79
320 K, 2020.7 kPa, x2 = 0.75 | 486.64
320 K, 2497.1 kPa, x2 = 0.75 | 488.41
320 K, 2502.8 kPa, x2 = 0.25 | 533.06
320 K, 2516.5 kPa, x2 = 0.5 | 512.32
320 K, 2999.8 kPa, x2 = 0.5 | 513.74
320 K, 3011.6 kPa, x2 = 0.75 | 490.26
320 K, 3012.6 kPa, x2 = 0.25 | 534.34
320 K, 3459.5 kPa, x2 = 0.75 | 491.82
320 K, 3509.2 kPa, x2 = 0.5 | 515.19
320 K, 3516.7 kPa, x2 = 0.25 | 535.58
320 K, 4012.1 kPa, x2 = 0.25 | 536.73
320 K, 4013.7 kPa, x2 = 0.75 | 493.68
320 K, 4017.1 kPa, x2 = 0.5 | 516.6
320 K, 4472 kPa, x2 = 0.25 | 537.8
320 K, 4497.4 kPa, x2 = 0.5 | 517.9
320 K, 4512.7 kPa, x2 = 0.75 | 495.29
320 K, 4988.6 kPa, x2 = 0.5 | 519.21
320 K, 4989.7 kPa, x2 = 0.25 | 539
320 K, 5019.1 kPa, x2 = 0.75 | 496.89
320 K, 5490.6 kPa, x2 = 0.5 | 520.51
320 K, 5501 kPa, x2 = 0.25 | 540.19
320 K, 5520.4 kPa, x2 = 0.75 | 498.43
320 K, 5989.8 kPa, x2 = 0.5 | 521.77
320 K, 6001.7 kPa, x2 = 0.75 | 499.85
320 K, 6013.9 kPa, x2 = 0.25 | 541.36
320 K, 6479.5 kPa, x2 = 0.5 | 522.98
320 K, 6522.9 kPa, x2 = 0.75 | 501.37
320 K, 6524.6 kPa, x2 = 0.25 | 542.42
320 K, 7003.8 kPa, x2 = 0.25 | 543.49
320 K, 7020.7 kPa, x2 = 0.75 | 502.78
320 K, 7116.4 kPa, x2 = 0.5 | 524.52
340 K, 1485.3 kPa, x2 = 0.25 | 500.98
340 K, 1990.9 kPa, x2 = 0.25 | 502.87
340 K, 1994.9 kPa, x2 = 0.75 | 448.06
340 K, 2013.6 kPa, x2 = 0.5 | 478.5
340 K, 2454.3 kPa, x2 = 0.25 | 504.54
340 K, 2508.8 kPa, x2 = 0.5 | 480.75
340 K, 2527.2 kPa, x2 = 0.75 | 451.44
340 K, 2997.6 kPa, x2 = 0.25 | 506.44
340 K, 3013.6 kPa, x2 = 0.5 | 482.96
340 K, 3018 kPa, x2 = 0.75 | 454.37
340 K, 3488 kPa, x2 = 0.25 | 508.09
340 K, 3515.5 kPa, x2 = 0.5 | 485.04
340 K, 3542.6 kPa, x2 = 0.75 | 457.27
340 K, 3984.5 kPa, x2 = 0.25 | 509.71
340 K, 4016.2 kPa, x2 = 0.5 | 487.04
340 K, 4021.6 kPa, x2 = 0.75 | 459.81
340 K, 4469.1 kPa, x2 = 0.75 | 462.01
340 K, 4496.8 kPa, x2 = 0.5 | 488.89
340 K, 4514.8 kPa, x2 = 0.25 | 511.39
340 K, 4981.8 kPa, x2 = 0.25 | 512.84
340 K, 4991.2 kPa, x2 = 0.75 | 464.48
340 K, 5012.2 kPa, x2 = 0.5 | 490.8
340 K, 5479.2 kPa, x2 = 0.25 | 514.33
340 K, 5511.6 kPa, x2 = 0.5 | 492.6
340 K, 5517 kPa, x2 = 0.75 | 466.87
340 K, 5958.5 kPa, x2 = 0.25 | 515.74
340 K, 5990.2 kPa, x2 = 0.75 | 468.91
340 K, 6031.2 kPa, x2 = 0.5 | 494.4
340 K, 6477.8 kPa, x2 = 0.25 | 517.22
340 K, 6495 kPa, x2 = 0.75 | 471.01
340 K, 6534.4 kPa, x2 = 0.5 | 496.09
340 K, 6953.2 kPa, x2 = 0.75 | 472.85
340 K, 6991.8 kPa, x2 = 0.25 | 518.67
340 K, 7014.4 kPa, x2 = 0.5 | 497.66
360 K, 1968.3 kPa, x2 = 0.25 | 468.3
360 K, 2483.2 kPa, x2 = 0.25 | 471.24
360 K, 2528 kPa, x2 = 0.5 | 441.58
360 K, 2981.1 kPa, x2 = 0.75 | 400.91
360 K, 3014.4 kPa, x2 = 0.5 | 445.35
360 K, 3030.5 kPa, x2 = 0.25 | 474.17
360 K, 3479.5 kPa, x2 = 0.25 | 476.45
360 K, 3504.1 kPa, x2 = 0.75 | 407.74
360 K, 3530.7 kPa, x2 = 0.5 | 449
360 K, 4004.6 kPa, x2 = 0.25 | 478.98
360 K, 4023.8 kPa, x2 = 0.5 | 452.26
360 K, 4034.2 kPa, x2 = 0.75 | 413.59
360 K, 4494.7 kPa, x2 = 0.25 | 481.23
360 K, 4499.5 kPa, x2 = 0.75 | 418.08
360 K, 4529.2 kPa, x2 = 0.5 | 455.37
360 K, 4959.4 kPa, x2 = 0.75 | 422.1
360 K, 5018.1 kPa, x2 = 0.25 | 483.52
360 K, 5025.4 kPa, x2 = 0.5 | 458.22
360 K, 5477.4 kPa, x2 = 0.75 | 426.13
360 K, 5492.3 kPa, x2 = 0.25 | 485.53
360 K, 5525 kPa, x2 = 0.5 | 460.95
360 K, 5965.8 kPa, x2 = 0.75 | 429.75
360 K, 5999.9 kPa, x2 = 0.25 | 487.58
360 K, 6017.8 kPa, x2 = 0.5 | 463.52
360 K, 6472.2 kPa, x2 = 0.25 | 489.44
360 K, 6494 kPa, x2 = 0.75 | 433.3
360 K, 6530.6 kPa, x2 = 0.5 | 466.12
360 K, 6960.2 kPa, x2 = 0.75 | 436.27
360 K, 6966.9 kPa, x2 = 0.25 | 491.3
360 K, 6972.7 kPa, x2 = 0.5 | 468.36
380 K, 2507.8 kPa, x2 = 0.25 | 426.44
380 K, 3006.4 kPa, x2 = 0.25 | 431.76
380 K, 3508.7 kPa, x2 = 0.25 | 436.48
380 K, 3523.1 kPa, x2 = 0.5 | 395.46
380 K, 3998.7 kPa, x2 = 0.25 | 440.67
380 K, 4001.1 kPa, x2 = 0.5 | 402.87
380 K, 4476.5 kPa, x2 = 0.5 | 409.03
380 K, 4501.1 kPa, x2 = 0.25 | 444.52
380 K, 4538.7 kPa, x2 = 0.75 | 349.07
380 K, 4998.7 kPa, x2 = 0.25 | 448.08
380 K, 5019 kPa, x2 = 0.5 | 415.08
380 K, 5025.3 kPa, x2 = 0.75 | 362.3
380 K, 5491.2 kPa, x2 = 0.75 | 371.58
380 K, 5494.5 kPa, x2 = 0.5 | 419.73
380 K, 5497.5 kPa, x2 = 0.25 | 451.38
380 K, 5962.5 kPa, x2 = 0.5 | 423.89
380 K, 5986.2 kPa, x2 = 0.75 | 379.48
380 K, 5995.5 kPa, x2 = 0.25 | 454.49
380 K, 6480.6 kPa, x2 = 0.5 | 428.09
380 K, 6502.4 kPa, x2 = 0.25 | 457.46
380 K, 6503.9 kPa, x2 = 0.75 | 386.32
380 K, 6897.6 kPa, x2 = 0.75 | 390.75
380 K, 6908.8 kPa, x2 = 0.5 | 431.3
380 K, 6952.8 kPa, x2 = 0.25 | 459.99

mass density [kg/m3]
Conditions | 300 K | 320 K | 340 K | 360 K | 380 K
x2 = 0.25 | 554.07 | 528.42 | 499.52 | 466.36 | 424.79
x2 = 0.5 | 535.4 | 507.52 | 475.99 | – | 387.07
x2 = 0.75 | 514.2 | 483.71 | 447.59 | 398.44 | –
